Experimental data taken from US20210047290A1, “SPIRO COMPOUND AS INDOLEAMINE-2,3-DIOXYGENASE INHIBITOR” (SHANGHAI INSTITUTE OF ORGANIC CHEMISTRY, CHINESE ACADEMY OF …, priority 2018, published 2021).

Legend:
IDO enzyme = target: T1, IDO enzyme (Homo sapiens, UniProt P14902); test: IDO enzyme inhibitory activity test; assay type: biochemical; details: recombinant IDO, D-Trp substrate, reading at 321 nm for 40 min
T1 construct: made in house; host or cells: E. coli BL21 (pET28a-IDO plasmid)
Description: (1) Induced Expression and Purification Method of IDO Protein
Firstly, DO gene was amplified with PCR, and the amplified PCR product was recycled. Digestion (2 h under 37° C.), gel running and recycling were carried out on the pET28a plasmid (purchased from Shanghai Baomanbio Co., Ltd.) and IDO gel with two restriction enzymes (EcoR I and Xho I). T4 ligase was connected with the product overnight, added into DH5α competence, placed on the ice for 30 min and subjected to thermal shock at 42° C. for 90 s.
BL21 which contained pET28a-IDO plasmid was shaken vigorously at 37° C. till OD600 was 0.6-0.8, added into hemin (final concentration: 40 μM) and 0.5 mM IPTG (isopropyl-3-D-IPTG) and induced under 16° C. for 20 h; after induction, thallus were collected centrifugally at 4° C. and 6,000 rpm, washed with 50 mM PBS (pH 7.5) and collected again centrifugally.
The collected thallus were suspended again with buffer solution (50 mM PBS pH 7.5). An appropriate amount of 100×PMSF was added. The thallus were disrupted with cell disruption instrument (1,400 bar) at 4° C. for three times. The split bacteria were centrifuged at 18,000×g for 45 min. The sediment was removed but supernatant was retained and filtered with a 0.45 μm film at 4° C.; the nickel column was balanced with lysis buffer (50 mM PBS pH7.5) by 3 column volumes.
The supernatant was loaded on the nickel column and washed with wash solution (50 mM PBS pH7.5, 50 mM imidazole) by 4 column volume. Finally, protein was eluted with eluant (50 mM PBS pH7.5, 250 mM imidazole); dialyzed for 6 h with dialysis solution (50 mM PBS pH7.5), concentrated, sub-packaged, quickly frozen with liquid nitrogen and stored at −80° C. for backup.
(2) Test Method for IDO Enzyme Inhibitory Activity
Firstly, the compound was diluted by triple gradient. 1 μL of each concentration was added into a 96-well plate; 50 μL of IDO Enzyme solution PBS (pH 7.5; final concentration: 50 mM) was added: 25 μL of substrate 1 (methylene blue, final concentration: […]; catalase, final concentration: 0.2 μg/L; PBS (pH 7.5; final concentration: 50 mM) mixture and 25 μL of substrate 2 (D-Trp, final concentration: 1.5 mM; sodium ascorbate, final concentration: 20 mM; PBS (pH 7.5), final concentration 50 mM) mixture were added for starting the reaction. Finally, OOD321 nm reading was carried out for 40 min.

IDO in Hela cells = target: T2, IDO in Hela cells (Homo sapiens, UniProt P14902); test: Test of cellular activity (kynurenine formation in interferon γ stimulated Hela cells); assay type: cell-based; details: head prints IPS cells, method: Hela cells, 48 h incubation, read at 480 nm
T2 construct: endogenous in cells; host or cells: HeLa cells stimulated with human interferon γ
Description: (3) Test Method of Cellular Activity
Hela cells (80 μL) was inoculated on a 96-well plate (5×10^3 for each well) to grow overnight. After the compound was diluted the next day, 1 μL of diluent and 100 μL of culture medium which contains human interferon γ (final concentration: 50 ng/m) were added into the 96-well plate to make the final volume reach […]. After incubating for 48 h, 80 μL of supernate was transferred from each well to a new […]. 10 μL 6.1N trichloroacetic acid was added into each well for mixing and incubation at 50° C. for 30 min, and […] N formyl-kynurenin into kynurenine. The reaction mixture was centrifuged at 2,500 rpm for 10 min, 70 μL of supernatant of each well was transferred to a new 96-well plate and mixed with 100 μL of 2% (w/v) dimethylaminobenzaldehyde acetic acid solution. After placing for 5-10 min, measurement was carried out at 480 nm with the SPECTRAmax i13 reader.

T1 sequence (P14902 whole entry): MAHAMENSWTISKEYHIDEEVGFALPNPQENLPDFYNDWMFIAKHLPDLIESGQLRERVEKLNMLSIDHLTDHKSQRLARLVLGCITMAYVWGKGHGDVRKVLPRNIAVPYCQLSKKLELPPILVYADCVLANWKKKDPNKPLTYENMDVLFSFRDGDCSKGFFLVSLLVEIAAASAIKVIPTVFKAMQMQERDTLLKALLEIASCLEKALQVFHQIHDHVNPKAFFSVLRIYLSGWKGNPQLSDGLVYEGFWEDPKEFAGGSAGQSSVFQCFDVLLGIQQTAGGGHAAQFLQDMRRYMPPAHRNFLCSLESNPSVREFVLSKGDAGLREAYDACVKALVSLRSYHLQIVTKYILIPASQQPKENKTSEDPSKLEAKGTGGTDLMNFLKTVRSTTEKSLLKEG
T2 sequence (P14902 whole entry): as above

IC50 (IDO enzyme) | IC50 (IDO in Hela cells) | Structure (SMILES)
520 nM | > 3 nM | O=C(Nc1ccc(Cl)cc1)C1CCC12CCC(c1ccnc3ccc(F)cc13)CC2 (single isomer, unassigned) [Example 10A, (±) N-(4-chlorophenyl)-7-(6-fluoroquinolin-4-yl)spiro[3.5]nonane-1-carboxamide]
3660 nM | > 10 nM | O=C(Nc1ccc(Cl)cc1)C1CC2(CCC(c3ccnc4ccc(F)cc34)CC2)C1 (single isomer, unassigned) [Example 15A, N-(4-chlorophenyl)-7-(6-fluoroquinolin-4-yl)spiro[3.5]nonane-2-carboxamide]
400 nM | 2.53 nM | O=C(Nc1ccc(Cl)cc1)C1CC2(CCC(c3ccnc4ccc(F)cc34)CC2)C1 (single isomer, unassigned) [Example 15B, N-(4-chlorophenyl)-7-(6-fluoroquinolin-4-yl)spiro[3.5]nonane-2-carboxamide]
